Assay results reported in patent US20120055467A1, “METERED-DOSE INHALER AND METHOD OF USING THE SAME” (CHIESI FARMACEUTICI S.P.A., priority 2010, published 2012).

Tests used:
[1] = Andersen Cascade Impactor (ACI) evaluation of pMDI spray drug delivery characteristics; type: physicochemical
Experimental: Spray characteristics of the system were evaluated by an Andersen cascade impactor fitted with a USP throat (App. 1, USP 33). […] This was repeated twice. Pre- and post-shot weights were recorded. […] The solutions were analysed by using a UPLC/MS (Ultra Performance Liquid Chromatography/Mass Spectrometry) system for the determination of the drug deposition.

[2] = Plume duration measured with in-line PC microphone, dual orifice actuator; type: physicochemical; conditions: Ex 8, individual can
Experimental: For Example 8, plume duration was measured using an in-line PC microphone in conjunction with Audacity 1.2.6 software.
Formulation combinations 17a-18a and 17b-18b are fired through the dual orifice actuator, as shown at 121 in FIG. 17B. Plume duration was measured for the simultaneous actuation of two 25 μL valves and two 63 μL valves and compared with plume duration for the individual cans. […] The two formulation combinations were: […]

[3] = Ex 2/3, Standard MDI, single can (BDP 100 μg/50 μl or formoterol fumarate 6 μg/50 μl), 0.22 mm orifice, mean, n=3
[4] = Ex 2/3, Standard MDI, single can, 0.22 mm orifice, mean, n=3
[5] = Ex 2, Dual MDI, Formulation 3 (formoterol fumarate 6 μg/25 μl) + Formulation 4 (BDP 100 μg/25 μl, glycerol) mixed, single 0.22 mm orifice, mean, n=2
[6] = Ex 2, Dual MDI, Formulations 3+4, single 0.22 mm orifice, mean, n=2
[7] = Ex 3, Dual MDI, Formulation 3 + placebo Formulation 5, single 0.22 mm orifice, mean, n=3
[8] = Ex 5, Dual-MDI, Formulations 8+3, single 0.22 mm orifice, mean, n=3
[9] = Ex 19, dual reservoir-single orifice prototype (FIG. 14B)
[10] = Ex 19, dual reservoir-single orifice prototype (FIG. 14B), BDP/Formoterol 100/6 μg/25 μl + glycopyrronium bromide 12.5 μg/25 μl
[11] = Ex 20, triple reservoir-single orifice prototype (FIG. 16B)
[12] = Ex 20, triple reservoir-single orifice prototype (FIG. 16B), BDP/Formoterol + glycopyrronium bromide + budesonide 50 μg/25 μl
[13] = Ex 1, Dual MDI, Formulations 1+2, single 0.22 mm actuator orifice, mean, n=3
[14] = Ex 1, Dual MDI, Formulations 1+2, single 0.30 mm actuator orifice, mean, n=3
[15] = Ex 1, Standard MDI, single can, 0.22 mm actuator orifice, mean, n=3
[16] = Ex 1, Standard MDI, single can, 0.30 mm actuator orifice, mean, n=3
[17] = Ex 4, Dual-MDI, Formulation 6 + Formulation 7 (HFA 134a), single 0.22 mm orifice, mean, n=2
[18] = Ex 4, Standard MDI, high ethanol (26% w/w) BDP 100 μg, 0.22 mm orifice, mean, n=2
[19] = Ex 6, dual can, BDP 25 μL + BUD 100 μL, single 0.22 mm orifice, mean, n=2
[20] = Ex 6, dual can, BDP 50 μL + BUD 50 μL, single 0.22 mm orifice, mean, n=2
[21] = Ex 6, dual can, BDP 100 μL + BUD 25 μL, single 0.22 mm orifice, mean, n=2
[22] = Ex 6, single can, 50 μg dose, metered volume 25 μL, 0.22 mm actuator, mean, n=2
[23] = Ex 6, single can, 50 μg dose, metered volume 50 μL, 0.22 mm actuator, mean, n=2
[24] = Ex 6, single can, 50 μg dose, metered volume 100 μL, 0.22 mm actuator, mean, n=2
[25] = Ex 7, Dual can, Formulations 15+16 simultaneously, dual orifice actuator, mean, n=2
[26] = Ex 7, Single can through dual orifice actuator, mean, n=2
[27] = Ex 9, Dual can, Formulations 17a+18a simultaneously, dual orifice actuator, mean, n=2
[28] = Ex 9, Single can through dual orifice actuator, mean, n=2
[29] = Ex 11, Dual can single orifice, Formulations 9+12, 0.30 mm orifice, mean, n=2
[30] = Ex 11, Single reservoir conventional MDI, 50/50, 0.30 mm orifice, mean, n=2

COc1ccc(C[C@@H](C)NC[C@H](O)c2ccc(O)c(NC=O)c2)cc1.COc1ccc(C[C@@H](C)NC[C@H](O)c2ccc(O)c(NC=O)c2)cc1.O=C(O)/C=C/C(=O)O [Formoterol, Formoterol fumarate]
Delivered Dose [1, 3]: 4.1 µg
FPD ≦ 5 μm [1, 4]: 2.1 µg
FPF [1, 4]: 51.9%
MMAD [1, 4]: 0.9 μm
Delivered Dose [1, 5]: 3.2 µg
FPD ≦ 5 μm [1, 6]: 1.9 µg
FPF [1, 6]: 61.1%
MMAD [1, 6]: 2.1 μm
Delivered Dose ([1]; Ex 3, Dual MDI, Formulation 3 (formoterol 6 μg/25 μl) + placebo Formulation 5 (glycerol), single 0.22 mm orifice, mean, n=3): 4.2 µg
FPD ≦ 5 μm [1, 7]: 2.7 µg
FPF [1, 7]: 64.0%
MMAD [1, 7]: 1.5 μm
Delivered Dose ([1]; Ex 5, Dual-MDI, Formulation 8 (budesonide 400 μg/63 μl) + Formulation 3 (formoterol 6 μg/25 μl), single 0.22 mm orifice, mean, n=3): 3.5 ± 0.7 µg
FPD ≦ 5 μm [1, 8]: 1.9 ± 0.2 µg
FPF [1, 8]: 53.6 ± 6.6%
MMAD [1, 8]: 1.7 ± 0.1 μm
Delivered Dose [1, 9]: 3.6 µg
FPD [1, 9]: 1.6 µg
FPF [1, 9]: 44.3%
MMAD [1, 9]: 1.3 μm
Metered Dose [1, 10]: 5.7 µg
Delivered Dose [1, 11]: 3.3 µg
FPD [1, 11]: 1.1 µg
FPF [1, 11]: 33.9%
MMAD [1, 11]: 1.5 μm
Metered Dose [1, 12]: 5.2 µg

CCC(=O)OCC(=O)[C@@]1(OC(=O)CC)[C@@H](C)C[C@H]2[C@@H]3CCC4=CC(=O)C=C[C@]4(C)[C@@]3(Cl)[C@@H](O)C[C@@]21C [BDP, Beclometasone dipropionate]
Delivered Dose ([1]; Ex 1, Dual MDI, Formulations 1+2 (each BDP 50 μg/25 μl, 13% ethanol, 1.3% glycerol) mixed, single 0.22 mm actuator orifice, mean, n=3): 99.3 µg
FPD ≦ 5 μm [1, 13]: 44.6 µg
FPF [1, 13]: 45.0%
MMAD [1, 13]: 2.9 μm
Delivered Dose [1, 14]: 95.6 µg
FPD ≦ 5 μm [1, 14]: 27.1 µg
FPF [1, 14]: 28.3%
MMAD [1, 14]: 3.0 μm
Delivered Dose ([1]; Ex 1, Standard MDI, single can BDP 100 μg/50 ul, 13% ethanol, 1.3% glycerol, 0.22 mm actuator orifice, mean, n=3): 89.8 µg
FPD ≦ 5 μm [1, 15]: 41.9 µg
FPF [1, 15]: 46.6%
MMAD [1, 15]: 3.0 μm
Delivered Dose [1, 16]: 89.1 µg
FPD ≦ 5 μm [1, 16]: 26.2 µg
FPF [1, 16]: 29.4%
MMAD [1, 16]: 3.3 μm
Delivered Dose [1, 3]: 99.3 µg
FPD ≦ 5 μm [1, 4]: 44.6 µg
FPF [1, 4]: 45.0%
MMAD [1, 4]: 2.9 μm
Delivered Dose [1, 5]: 97.9 µg
FPD ≦ 5 μm [1, 6]: 52.5 µg
FPF [1, 6]: 53.6%
MMAD [1, 6]: 2.5 μm
Delivered Dose ([1]; Ex 4, Dual-MDI, Formulation 6 (BDP 100 μg/25 μl, 26% ethanol) + Formulation 7 (100% HFA 134a, 25 μl), single 0.22 mm orifice, mean, n=2): 86.4 µg
FPD ≦ 5 μm [1, 17]: 41.1 µg
FPF [1, 17]: 47.5%
MMAD [1, 17]: 2.7 μm
FPD ≦ 5 μm [1, 18]: 26.7 µg
FPF [1, 18]: 26.5%
MMAD [1, 18]: 3.5 μm
Delivered Dose ([1]; Ex 4, Standard MDI, single can BDP 100 μg/25 μl, 26% w/w ethanol, 1.3% glycerol, 0.22 mm orifice, mean, n=2): 100.6 µg
Delivered Dose [1, 19]: 49.4 µg
FPD ≦ 5 μm [1, 19]: 18.5 µg
FPF [1, 19]: 37.3%
MMAD [1, 19]: 2.6 μm
Delivered Dose [1, 20]: 38.2 µg
FPD ≦ 5 μm [1, 20]: 16.8 µg
FPF [1, 20]: 44.1%
MMAD [1, 20]: 1.9 μm
Delivered Dose [1, 21]: 45.5 µg
FPD ≦ 5 μm [1, 21]: 18.6 µg
FPF [1, 21]: 40.8%
MMAD [1, 21]: 1.8 μm
MMAD ([1]; Ex 6, single can configuration, 0.22 mm actuator, across metered volumes 25-100 μL): 1.1-1.2 μm
Delivered Dose ([1]; Ex 6, single can, 50 μg dose, metered volume 25 μL (Formulation 9 / 12), 0.22 mm actuator, mean, n=2): 52.0 µg
FPD ≦ 5 μm [1, 22]: 31.1 µg
FPF [1, 22]: 59.8%
MMAD [1, 22]: 1.2 μm
Delivered Dose ([1]; Ex 6, single can, 50 μg dose, metered volume 50 μL (Formulation 10 / 13), 0.22 mm actuator, mean, n=2): 45.6 µg
FPD ≦ 5 μm [1, 23]: 24.7 µg
FPF [1, 23]: 54.0%
MMAD [1, 23]: 1.2 μm
Delivered Dose ([1]; Ex 6, single can, 50 μg dose, metered volume 100 μL (Formulation 11 / 14), 0.22 mm actuator, mean, n=2): 48.8 µg
FPD ≦ 5 μm [1, 24]: 19.2 µg
FPF [1, 24]: 39.4%
MMAD [1, 24]: 1.1 μm
Delivered Dose ([1]; Ex 7, Dual can, Formulations 15+16 (both with glycerol, 50 μg/25 μl) fired simultaneously through dual orifice actuator (0.22 mm), mean, n=2): 41.5 µg
FPD ≦ 5 μm [1, 25]: 12.7 µg
FPF [1, 25]: 30.6%
MMAD [1, 25]: 2.5 μm
FPD ≦ 5 μm [1, 26]: 17.0 µg
FPF [1, 26]: 47.2%
MMAD [1, 26]: 2.3 μm
Delivered Dose ([1]; Ex 7, Single can, fired individually through dual orifice actuator (0.22 mm), Formulation 15 inverted, Formulation 16 upright, mean, n=2): 36.0 µg
Delivered Dose ([1]; Ex 9, Dual can, Formulation 17a (budesonide, glycerol) + 18a (BDP, no glycerol) simultaneously through dual orifice actuator, mean, n=2): 40.8 µg
FPD ≦ 5 μm [1, 27]: 12.7 µg
FPF [1, 27]: 31.1%
MMAD [1, 27]: 1.5 μm
FPD ≦ 5 μm [1, 28]: 16.2 µg
FPF [1, 28]: 55.8%
MMAD [1, 28]: 0.9 μm
Delivered Dose ([1]; Ex 9, Single can, fired individually through dual orifice actuator, Formulation 17a inverted, 18a upright (50 μg/25 μL), mean, n=2): 29.1 µg
Metered Dose ([1]; Ex 11, Dual can single orifice, Formulation 9 (BDP 50/25) + Formulation 12 (budesonide 50/25, glycerol), 0.30 mm orifice, mean, n=2): 59.5 µg
Delivered Dose [1, 29]: 55.2 µg
FPD [1, 29]: 16.3 µg
FPF [1, 29]: 29.5%
MMAD [1, 29]: 2.8 μm
Metered Dose ([1]; Ex 11, Single reservoir conventional MDI, 50 μg/50 μl (Formulation 10 / 13), 0.30 mm orifice, mean, n=2): 52.7 µg
Delivered Dose [1, 30]: 47.1 µg
FPD [1, 30]: 16.6 µg
FPF [1, 30]: 35.2%
MMAD [1, 30]: 1.3 μm
MMAD ([1]; Ex 13, BDP formulation 25 μl delivered simultaneously with 100 μl budesonide formulation (glycerol), single 0.30 mm orifice): 3.1 μm
MMAD ([1]; Ex 13, conventional single reservoir MDI, 0.30 mm orifice): 1.2 μm
MMAD ([1]; Ex 14a/15, comparative, conventional single reservoir MDI, 0.22 mm orifice, 50 μl valves): 1.3 μm
MMAD ([1]; Ex 14a/15, dual reservoir-dual orifice, impingement angle 60°, orifice diameter 0.25 mm, separation distance 6.0 mm): 2.3 μm
actuator deposition ([1]; Ex 14a, 15° impingement, 6.0 mm separation, stated comparable to the standard actuator): 6.1 µg
MMAD ([1]; Ex 14a, dual reservoir-dual orifice, Formulations 9+12, impingement angle 60°, orifice diameter 0.25 mm, separation distance 17.5 mm): 2.0 μm
MMAD ([1]; Ex 14a, dual reservoir-dual orifice, impingement angle 15°, orifice diameter 0.25 mm, separation distance 6.0 mm): 1.8 μm
MMAD ([1]; Ex 14a, dual reservoir-dual orifice, impingement angle 60°, orifice diameter 0.25 mm, separation distance 9.0 mm): 2.1 μm
MMAD ([1]; Ex 14a, dual reservoir-dual orifice, impingement angle 60°, orifice diameter 0.30 mm, separation distance 2.0 mm): 1.9 μm
MMAD ([1]; Ex 15, dual reservoir, Formulations 9+12 through a single 0.30 mm diameter orifice): 2.8 μm
Delivered Dose [1, 9]: 67.6 µg
FPD [1, 9]: 30.2 µg
FPF [1, 9]: 44.7%
MMAD [1, 9]: 1.3 μm
Metered Dose [1, 10]: 92.8 µg
Delivered Dose [1, 11]: 60.8 µg
FPD [1, 11]: 21.2 µg
FPF [1, 11]: 34.9%
MMAD [1, 11]: 1.4 μm
Metered Dose [1, 12]: 85.9 µg
Plume duration ([2]; valve size 25 μL (Formulation 18a BDP upright, 17a budesonide inverted)): 0.317 s
Plume duration ([2]; valve size 63 μL (Formulation 18b BDP upright, 17b budesonide inverted)): 0.545 s

C[N+]1(C)CCC(OC(=O)C(O)(c2ccccc2)C2CCCC2)C1 (stereo not drawn) [Glycopyrronium bromide]
Delivered Dose [1, 9]: 7.9 µg
FPD [1, 9]: 3.5 µg
FPF [1, 9]: 44.1%
MMAD [1, 9]: 1.3 μm
Metered Dose [1, 10]: 11.3 µg
Delivered Dose [1, 11]: 6.9 µg
FPD [1, 11]: 2.2 µg
FPF [1, 11]: 32.4%
MMAD [1, 11]: 1.4 μm
Metered Dose [1, 12]: 10.8 µg
